Reference: PubChem BioAssay AID743396 (Broad Institute, 2014)
The source made the active and inactive calls.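 How the source made its calls: active means fitted curve reaches a 40% rise in fluorescent cells at or below the top valid dose; inactive means opposite-direction effect, or the rest.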

Experiment: autofluorescent compounds in non-GFP fibroblasts, dose response, artefact control for X-chromosome reactivation project, imaging, mTEFS fibroblasts, cherry-pick (AID 743396);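 further: raw share of Hoechst-counted cells scored GFP positive without control normalization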
Conditions: mTEFS fibroblasts autofluorescence, GFP-channel imaging, 3 days
[1] = at 19.5 µM (top of the series), cells pretreated with 5-aza-dC
[2] = at 21 µM (top of the series), cells pretreated with 5-aza-dC

SMILES	% fluorescent cells increase [1]	other results
C=CCNC(=O)N[C@@H](Cc1ccccc1)C(=O)OC	1.04% (inactive)	
CC(=O)Nc1ccc(N2Cc3ccccc3C2)cc1	0.093% (inactive)	
CCN(CC)c1ccc(N=Cc2ccc([N+](=O)[O-])o2)cc1	0.026% (inactive)	
COc1ccc(NC(=O)Nc2ccc3c(c2)C(=O)N([C@@H](C)CO)C[C@H](C)[C@@H](CN(C)S(=O)(=O)c2ccc(OC)cc2)O3)cc1	0% (inactive)	
Cc1ccc(-c2ccc3c(c2)O[C@@H](CN(C)Cc2ccncc2)[C@@H](C)CN([C@@H](C)CO)S3(=O)=O)cc1	0.037% (inactive)	
O=C(Nc1ccccc1N1CCCCC1)c1cnccn1	0.039% (inactive)	
CCc1ccc(CCC(=O)Nc2ncc(Cc3ccccc3Cl)s2)o1	-0.007% (inactive)	
C[C@@H]1CCCCO[C@@H](CN(C)C(=O)Nc2ccc(C(F)(F)F)cc2)[C@@H](C)CN([C@H](C)CO)C(=O)c2cc(NS(=O)(=O)c3ccc(F)cc3)ccc2O1	-0.166% (inactive)	
NC(=O)c1sc2nc3c(cc2c1N)CCCCCC3	0.03% (inactive)	
O=CNc1ccc2c(c1)Cc1cc([N+](=O)[O-])ccc1-2	0.119% (inactive)	
O=c1[nH]cnc2c1ncn2[C@H]1CC[C@@H](CO)O1	0.722% (inactive)	
O=C(COC(=O)c1ccc(NS(=O)(=O)c2cccs2)cc1O)NC1CCCCC1	0.547% (inactive)	
O=C(c1nc(SCc2ccc([N+](=O)[O-])cc2)n2ccccc12)C(F)(F)F	0.04% (inactive)	
C[C@@H]1CN([C@@H](C)CO)C(=O)c2cc(NS(C)(=O)=O)ccc2O[C@@H](C)CCCCO[C@@H]1CN(C)Cc1ccccc1	0.259% (inactive)	
CC(=O)Nc1sc(N/N=C/c2ccc(N(C)C)cc2)nc1-c1ccc(C)cc1	-0.004% (inactive)	
COc1cc(/C=C/C(=O)c2ccc3c(c2)OCCO3)cc(Br)c1OCC(=O)N(C)C	7.79% (inactive)	
CC1CN(Cc2c(O)ccc3c2oc(=O)c2ccccc23)CC(C)O1 (stereo not drawn)	0.279% (inactive)	
c1ccc(CCNc2nc(-c3ccccn3)nc3ccccc23)cc1	0% (inactive)	
O=C1c2ccc3c4c(ccc(c24)C(=O)N1c1cccc(O)c1)C(=O)N(c1cccc(O)c1)C3=O	-0.003% (inactive)	
CO[C@H](CN(C)C(=O)Nc1ccc(C(F)(F)F)cc1)[C@@H](C)CN(Cc1ccccc1Cl)[C@@H](C)CO		% fluorescent cells increase [2]: 0% (inactive)
Cc1cc(-c2nc(C)c(-c3nnc(SCC(=O)Nc4ccc(Cl)cc4)n3C)s2)no1	0% (inactive)	

SMILES	% fluorescent cells increase [1]	other results
Cc1noc(C)c1NC(=O)N[C@H]1CC[C@H](CC(=O)N2CCN(C)CC2)O[C@H]1CO	0.024% (inactive)	
O=C(Nc1cccc(C(=O)O)c1)/C(=C\c1ccccc1)NC(=O)c1ccc(Br)o1	0% (inactive)	
O=C(/C=C/Sc1ccc(C(F)(F)F)cn1)c1ccccc1	-0.007% (inactive)	
COC(=O)c1sc(-c2ccc(C(C)(C)C)cc2)cc1NC(=O)c1ccccc1C(=O)O	0.032% (inactive)	
Cc1ccc(N(C)C(=O)C2CCN(S(=O)(=O)c3ccc4c(c3)oc(=O)n4C)CC2)cc1	-0.007% (inactive)	
COc1ccc(CN(C)C[C@H]2OCCCC[C@H](C)Oc3ccc(NC(=O)Nc4ccc(F)cc4)cc3C(=O)N([C@H](C)CO)C[C@H]2C)cc1	0.183% (inactive)	
CCOC(=O)N1CCN(Cc2cc(Cl)c3cccnc3c2O)CC1	0% (inactive)	
O=[N+]([O-])c1ccc(Sc2nnnn2-c2ccccc2)nc1	-0.007% (inactive)	
CN(C)C(=O)CN1CCN(Cc2nc(CC3CC3)no2)CC1	0.246% (inactive)	
O=C(NC1=NN(c2ccccc2)CC1)Nc1ccccc1F	-0.002% (inactive)	
COC(=O)c1ccc(NC(=O)c2nc(S(=O)(=O)Cc3cccc(C)c3)ncc2Cl)cc1	-0.007% (inactive)	
CC(C)c1ccc(CN2CCN(C(=O)CSc3nnnn3C3CC3)CC2)cc1	0.042% (inactive)	
CN(Cc1cccs1)C(=O)Cc1c[nH]c2ccccc12	0.005% (inactive)	
Nc1cc2c3c(cccc3c1)C(=O)N(CCN1CCCC1)C2=O	-0.003% (inactive)	
Cc1ccccc1C1c2[nH]c3ccccc3c2CCN1Cc1cccn1-c1ncccn1 (stereo not drawn)	0.002% (inactive)	
O=C(c1ccc(Br)cc1)c1cc([N+](=O)[O-])ccc1N1CCOCC1	4.03% (inactive)	
COc1ccc(Cc2c(O)nc(SCC(=O)NC34CC5CC(CC(C5)C3)C4)[nH]c2=O)cc1	0.014% (inactive)	
OCC[n+]1c2ccccc2nc2ccc(N3CCOCC3)cc21		% fluorescent cells increase (at 19.5 µM (top of the series)): 0% (inactive)
COc1ccc2c3c([nH]c2c1)[C@H](CO)N(C(=O)c1cccnc1)CC31CCN(Cc2ccccc2)CC1	0.458% (inactive)	
CCOC(=O)c1sc(Nc2ccc(Br)cc2)nc1C	1.37% (inactive)	
CCOC(=O)C1=C(C)NC(=S)NC1/C=C/c1ccccc1 (stereo not drawn)	-0.004% (inactive)	

SMILES	% fluorescent cells increase [1]	other results
Cc1ccc(NC(=O)c2cc(N3C(=O)C=CC3=O)ccc2N2CCOCC2)cc1Cl	-0.004% (inactive)	
COc1ccc(CN(C)Cc2nc(Cc3ccccc3Cl)no2)cc1OC	0.025% (inactive)	
Cc1ccc2[nH]c(=S)n(-c3cccnc3)c(=O)c2c1		% fluorescent cells increase (at 19.5 µM (top of the series)): 0.016% (inactive)
CCOC(=O)CSc1nnc(CCCCCN2C(=O)c3cccc4cccc(c34)C2=O)o1	0.071% (inactive)	
N/C(=N\OC(=O)C12CC3CC(CC(C3)C1)C2)c1ccncc1	-0.004% (inactive)	
Cc1cccc(CN(C)C[C@@H]2Oc3ncc(C#Cc4ccccc4)cc3C(=O)N([C@H](C)CO)C[C@@H]2C)c1		% fluorescent cells increase [2]: 0% (inactive)
CCc1ccc(N2CC(C(=O)Nc3cc(C)on3)CC2=O)cc1 (stereo not drawn)	0.015% (inactive)	
O=C1CSC(c2cccnc2)N1Cc1ccc(Cl)cc1Cl (stereo not drawn)	0% (inactive)	
COc1cccc2cc(C(=O)N(Cc3cccs3)CC3CCCO3)c(=O)oc12 (stereo not drawn)	0.013% (inactive)	
Cc1ccc(O)c(N=Nc2ccc(S(=O)(=O)N3CCCC3)cc2)c1	0% (inactive)	
COCCN(C(=S)Nc1cccc(C)c1)C(C)c1cccnc1 (stereo not drawn)	-0.004% (inactive)	
CC1CCCC(NC(=O)CSc2cccc[n+]2[O-])C1C (stereo not drawn)	0.029% (inactive)	
CCOC(=O)Cc1csc(NC(=O)Nc2ccc(F)cc2)n1	0% (inactive)	
CCC(=O)N1CC(=O)N2[C@@H](CO)[C@@H](c3ccc(-c4ccccc4F)cc3)[C@@H]2C1	0% (inactive)	
Cn1c2ccccc2c2cnn(CC(=O)Nc3ccccc3Br)c(=O)c21	-0.007% (inactive)	
CCc1ccc(CN(C)C(=O)c2cc(S(=O)(=O)N3CCOCC3)ccc2N2CCCC2)cc1	0.027% (inactive)	
C=CC[C@@H](CC(=O)N(CCO)Cc1ccccc1)C(=O)NCCOC(=O)[C@@H](CC=C)Cc1ccc(F)cc1	0.009% (inactive)	
O=C(O)CSc1ncccn1	0.143% (inactive)	
COc1ccc(-n2c(=O)n(Cc3ccccc3)c(=O)c3[nH]cnc32)cc1	0.008% (inactive)	
CCn1nc(C)cc1-c1nnc(Sc2ncc([N+](=O)[O-])s2)n1C	0% (inactive)	
C#Cc1cc(N2CCN(C(=O)c3ccoc3)CC2)n2nc(-c3cccc(Cl)c3)cc2n1	7.21% (inactive)	

SMILES	% fluorescent cells increase [1]	other results
Nc1ccccc1Nc1cc(-c2ccccc2)[nH]n1	2.52% (inactive)	
C=CCN(CC(O)c1cccc([N+](=O)[O-])c1)C(C)CCc1ccccc1 (stereo not drawn)	1.4% (inactive)	
O=C(c1ccc(S(=O)(=O)c2ccc(Cl)cc2)cc1)N1CCOCC1	0.948% (inactive)	
COc1ccc(/C=C2\CCc3ccccc3C2=O)cc1CN1CCOCC1	-0.007% (inactive)	
COc1ccccc1NC(=S)N(CCCN1CCOCC1)Cc1cccs1	-0.007% (inactive)	
CC(=O)c1ccc(NS(=O)(=O)c2ccc(N/C=C/C(=O)c3ccc(F)cc3)cc2)cc1	0% (inactive)	
COc1ccccc1CN1CC[C@H]2[C@H](CO)Nc3ccc(C#Cc4ccccc4)cc3[C@H]21	0% (inactive)	
COc1ccc(CCCc2nc3ccccc3[nH]2)cc1	-0.011% (inactive)	
Cc1cc(NC(=O)c2c(-c3c(Cl)cccc3Cl)noc2C)n(C)n1	0.012% (inactive)	
Cc1ccc(NC(=O)c2ncn(CCCNCCCN(C)C)n2)cc1C	0% (inactive)	
CN1CCN(S(=O)(=O)c2ccc(C#N)cc2)C(c2ccccc2)C1 (stereo not drawn)	0% (inactive)	
CCOC(=O)Cc1c(C)[nH]n(-c2ccccc2)c1=O	0.015% (inactive)	
C=CCn1c(SCC(=O)N(CC)C2CCS(=O)(=O)C2)nc2sc3c(c2c1=O)CCC3 (stereo not drawn)	0.034% (inactive)	
CCCNC(=O)N1CC2(CN(S(C)(=O)=O)C2)c2c(n(C)c3cc(OC)ccc23)[C@H]1CO	0.032% (inactive)	
COc1ccc(N2CCN(C(CNC(=O)c3ccc4c(c3)OCO4)c3ccco3)CC2)cc1 (stereo not drawn)	0% (inactive)	
O=C(N/N=C/c1ccc(O)c2ncccc12)c1cccc(Br)c1	-0.003% (inactive)	
C[C@H](NC(=O)C[C@H]1CC[C@@H](NC(=O)Cc2ccccn2)[C@@H](CO)O1)c1ccccc1	0.008% (inactive)	
COc1ccc(Cl)cc1C(=O)Nc1ccccc1N1CCCCC1	2.45% (inactive)	
Cc1cc2c(NC(=O)Nc3ccc(C(C)(C)C)cc3)cccc2nn1	0.237% (inactive)	
CCN(CC(=O)Nc1sc2c(c1C#N)CCCC2)CC(=O)NC1CCS(=O)(=O)C1 (stereo not drawn)	0.225% (inactive)	
